Assay results taken from ChEMBL document CHEMBL1126443, “Cholinergic agents: aldehyde, ketone, and oxime analogues of the muscarinic agonist UH5” (Bioorg Med Chem Lett, 1992).

tested on: not listed separately; assay: Selectivity ratio of M2/m1 receptors

Row | Structure (SMILES) | Selectivity ratio
1 | CC(/C=N/O)CC#CCN1CCCC1 (centres undefined) | 4.8
2 | C[N+](C)(C)CC#CCOC(=O)Nc1cccc(Cl)c1.[Cl-] | 4.7
3 | CC(=O)N(C)CC#CCN1CCCC1 | 0.9
4 | CC(/C=N/O)CC#CCN(C)C (centres undefined) | 1.3
5 | CC(=O)CCC#CCN(C)C | 0.4
6 | CC(=O)C(C)CC#CCN1CCCC1 (centres undefined) | 2.3
7 | CC(=O)N(C)CC#CCN(C)C | 0.2
8 | O=C1CCCN1CC#CCN1CCCC1 [OXOTREMORINE] | 2.4

molecular target: T1, Muscarinic acetylcholine receptor (Rattus norvegicus) (UniProt P08482+P08483+P08485+P08911+P10980); assay: Percent inhibition towards muscarinic receptor in rat neocortex using 0.03 nM [3H]quinuclidinyl benzylate receptor binding assay (RQMB) was determined

Row | Structure (SMILES) | inhibition [%]
9 | CO/N=C(\C)CCC#CCN1CCCC1 | 17
10 | CO/N=C(\C)CCC#CCN(C)C | 1
11 | CO/N=C/C(C)CC#CCN(C)C (centres undefined) | 4
12 | CC(C=O)CC#CCN(C)C (centres undefined) | 0
13 | CO/N=C(\C)C(C)CC#CCN(C)C (centres undefined) | 3
14 | CC(C=O)CC#CCN1CCCC1 (centres undefined) | 9
15 | C/C(=N\O)C(C)CC#CCN(C)C (centres undefined) | 9
16 | CO/N=C(\C)C(C)CC#CCN1CCCC1 (centres undefined) | 26
17 | C/C(=N\O)C(C)CC#CCN1CCCC1 (centres undefined) | 15
18 | CO/N=C/C(C)CC#CCN1CCCC1 (centres undefined) | 15

molecular target: Muscarinic acetylcholine receptor; assay: Inhibition of 0.1 nM [3H]cis-methyldioxolane binding to rat neocortex muscarinic receptor; format: protein assay

Row | Structure (SMILES) | IC50 [µM]
19 | CC(/C=N/O)CC#CCN1CCCC1 (centres undefined) | 0.021
20 | C[N+](C)(C)CC#CCOC(=O)Nc1cccc(Cl)c1.[Cl-] | 0.064
21 | CC(=O)N(C)CC#CCN1CCCC1 | 0.0045
22 | CC(/C=N/O)CC#CCN(C)C (centres undefined) | 0.03
23 | C/C(CCC#CCN(C)C)=N\O | 0.139
24 | CC(=O)CCC#CCN(C)C | 0.068
25 | CC(=O)C(C)CC#CCN1CCCC1 (centres undefined) | 0.059
26 | CC(=O)C(C)CC#CCN(C)C (centres undefined) | 0.101
27 | C/C(CCC#CCN1CCCC1)=N\O | 0.373
28 | CC(=O)CCC#CCN1CCCC1 | 0.214
29 | CC(=O)N(C)CC#CCN(C)C | 0.0216
30 | O=C1CCCN1CC#CCN1CCCC1 [OXOTREMORINE] | 0.0015

molecular target: T2, Muscarinic acetylcholine receptor M1 (Homo sapiens, UniProt P11229); assay: Displacement of [3H]QNB in genetically transformed mouse cell line (m1C2) transfected with Muscarinic acetylcholine receptor M1
T2 sequence (P11229 whole entry): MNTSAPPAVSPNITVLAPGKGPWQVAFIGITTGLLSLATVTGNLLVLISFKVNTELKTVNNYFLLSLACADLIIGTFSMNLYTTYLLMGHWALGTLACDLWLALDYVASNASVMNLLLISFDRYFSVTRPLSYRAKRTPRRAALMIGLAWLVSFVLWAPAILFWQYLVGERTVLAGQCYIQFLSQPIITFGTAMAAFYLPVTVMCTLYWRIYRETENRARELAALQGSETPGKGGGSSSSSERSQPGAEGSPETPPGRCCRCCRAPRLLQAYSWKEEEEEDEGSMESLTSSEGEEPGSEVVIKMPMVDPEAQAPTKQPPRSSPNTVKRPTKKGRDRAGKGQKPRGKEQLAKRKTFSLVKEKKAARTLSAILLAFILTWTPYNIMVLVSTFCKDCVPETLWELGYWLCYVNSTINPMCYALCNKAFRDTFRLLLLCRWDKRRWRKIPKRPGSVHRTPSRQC

Row | Structure (SMILES) | IC50 [µM]
31 | CC(/C=N/O)CC#CCN1CCCC1 (centres undefined) | 0.92
32 | C[N+](C)(C)CC#CCOC(=O)Nc1cccc(Cl)c1.[Cl-] | 7.24
33 | CC(=O)N(C)CC#CCN1CCCC1 | 2.45
34 | CC(/C=N/O)CC#CCN(C)C (centres undefined) | 25.9
35 | CC(=O)CCC#CCN(C)C | 51.8
36 | CC(=O)C(C)CC#CCN1CCCC1 (centres undefined) | 2.8
37 | CC(=O)N(C)CC#CCN(C)C | 87.9
38 | O=C1CCCN1CC#CCN1CCCC1 [OXOTREMORINE] | 0.364

molecular target: T3, Muscarinic acetylcholine receptor M2 (Rattus norvegicus, UniProt P10980); assay: Displacement of [3H]QNB from Muscarinic acetylcholine receptor M2 from rat heart homogenates; format: tissue-based
T3 sequence (P10980 whole entry): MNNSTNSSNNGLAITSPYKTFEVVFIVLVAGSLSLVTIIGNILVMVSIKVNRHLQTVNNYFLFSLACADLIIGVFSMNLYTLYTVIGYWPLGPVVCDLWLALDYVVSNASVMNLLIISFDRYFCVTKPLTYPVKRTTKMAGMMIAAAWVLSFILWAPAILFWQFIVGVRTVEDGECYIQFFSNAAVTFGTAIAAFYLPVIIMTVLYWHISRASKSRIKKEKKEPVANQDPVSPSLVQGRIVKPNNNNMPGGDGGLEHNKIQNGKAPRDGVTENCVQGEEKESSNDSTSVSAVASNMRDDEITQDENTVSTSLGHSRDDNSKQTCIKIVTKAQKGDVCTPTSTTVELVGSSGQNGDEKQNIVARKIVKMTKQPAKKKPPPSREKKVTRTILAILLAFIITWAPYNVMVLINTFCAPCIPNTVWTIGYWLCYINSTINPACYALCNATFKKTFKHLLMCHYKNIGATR

Row | Structure (SMILES) | IC50 [µM]
39 | CC(/C=N/O)CC#CCN1CCCC1 (centres undefined) | 5.5
40 | C[N+](C)(C)CC#CCOC(=O)Nc1cccc(Cl)c1.[Cl-] | 34.1
41 | CC(=O)N(C)CC#CCN1CCCC1 | 2.01
42 | CC(/C=N/O)CC#CCN(C)C (centres undefined) | 34.2
43 | CC(=O)CCC#CCN(C)C | 18.9
44 | CC(=O)C(C)CC#CCN1CCCC1 (centres undefined) | 6.5
45 | CC(=O)N(C)CC#CCN(C)C | 4.46

molecular target: T1, Muscarinic acetylcholine receptor (Rattus norvegicus); assay: Percent inhibition towards muscarinic receptor in rat neocortex using 0.1 nM [3H]cis-methyldioxolane receptor binding assay (RCMD)

Row | Structure (SMILES) | inhibition [%]
46 | CO/N=C(\C)CCC#CCN1CCCC1 | 5
47 | CO/N=C(\C)CCC#CCN(C)C | 5
48 | CO/N=C/C(C)CC#CCN(C)C (centres undefined) | 6
49 | CC(C=O)CC#CCN(C)C (centres undefined) | 0
50 | CO/N=C(\C)C(C)CC#CCN(C)C (centres undefined) | 5
51 | CC(C=O)CC#CCN1CCCC1 (centres undefined) | 1
52 | C/C(=N\O)C(C)CC#CCN(C)C (centres undefined) | 12
53 | CO/N=C(\C)C(C)CC#CCN1CCCC1 (centres undefined) | 21
54 | C/C(=N\O)C(C)CC#CCN1CCCC1 (centres undefined) | 21
55 | CO/N=C/C(C)CC#CCN1CCCC1 (centres undefined) | 27

molecular target: T1, Muscarinic acetylcholine receptor (Rattus norvegicus); assay: Relative binding efficacy for muscarinic receptors using QNB and CMD; format: protein assay

Row | Structure (SMILES) | Efficacy ratio
56 | CC(/C=N/O)CC#CCN1CCCC1 (centres undefined) | 92
57 | C[N+](C)(C)CC#CCOC(=O)Nc1cccc(Cl)c1.[Cl-] | 84
58 | CC(=O)N(C)CC#CCN1CCCC1 | 544
59 | CC(/C=N/O)CC#CCN(C)C (centres undefined) | 441
60 | C/C(CCC#CCN(C)C)=N\O | 265
61 | CC(=O)CCC#CCN(C)C | 965
62 | CC(=O)C(C)CC#CCN1CCCC1 (centres undefined) | 97
63 | CC(=O)C(C)CC#CCN(C)C (centres undefined) | 549
64 | C/C(CCC#CCN1CCCC1)=N\O | 3
65 | CC(=O)CCC#CCN1CCCC1 | 34
66 | CC(=O)N(C)CC#CCN(C)C | 4070
67 | O=C1CCCN1CC#CCN1CCCC1 [OXOTREMORINE] | 308

molecular target: Muscarinic acetylcholine receptor; assay: Inhibition of 0.03 nM [3H]quinuclidinyl benzylate binding to rat neocortex muscarinic receptor; format: protein assay

Row | Structure (SMILES) | IC50 [µM]
68 | CC(/C=N/O)CC#CCN1CCCC1 (centres undefined) | 1.928
69 | C[N+](C)(C)CC#CCOC(=O)Nc1cccc(Cl)c1.[Cl-] | 5.388
70 | CC(=O)N(C)CC#CCN1CCCC1 | 2.447
71 | CC(/C=N/O)CC#CCN(C)C (centres undefined) | 13.23
72 | C/C(CCC#CCN(C)C)=N\O | 36.769
73 | CC(=O)CCC#CCN(C)C | 65.6
74 | CC(=O)C(C)CC#CCN1CCCC1 (centres undefined) | 5.696
75 | CC(=O)C(C)CC#CCN(C)C (centres undefined) | 55.4
76 | C/C(CCC#CCN1CCCC1)=N\O | 1.254
77 | CC(=O)CCC#CCN1CCCC1 | 7.28
78 | CC(=O)N(C)CC#CCN(C)C | 87.876
79 | O=C1CCCN1CC#CCN1CCCC1 [OXOTREMORINE] | 0.407
